Reference: patent US10309967B2, “Methods of diagnosing bipolar disorders and screening for therapeutic compounds” (National University Corporation Chiba University, priority 2015, dated 2019)
“Also recorded” adds a separate entry of the source.

Assays:
Aco1 = test: Quantitative PCR of Aco1 mRNA in rat prefrontal cortex and hippocampus after Li or VPA; type: in vivo; conditions: normalized to Gapdh; for Aco1 gene expression: relative to control, mean ± SD
Experimental: (§1) Real-time quantitative RT-PCR analysis was conducted using an ABI7900HT Fast Real-Time PCR System (Applied Biosystems, Foster City, Calif.) in both human and rat samples. TaqMan probes and primers for the seven genes (ACO1, ACO2, IDH1, IDH2, IDH3A, IDH3B, IDH3G) and GAPDH (an internal control) (Table 11) were TAQMAN® Gene Expression Assays products (Applied Biosystems).
(§2) The CSF concentrations of 116 major metabolites from several pathways were measured. […] Male Sprague-Dawley rats (Japan SLC Inc., Shizuoka, Japan) aged 6 weeks old were used in this study. All rats were housed in groups of three per cage in a room maintained at 23° C.±2° C. and 60±10% humidity with a 12/12 hour light/dark cycle (lights on at 7:00 a.m.). The rats were given free access to food and water. Animal care and use were conducted in accordance with the Institutional Guidelines for Animal Care and Use of Otsuka Pharmaceutical Co., Ltd. (Tokushima, Japan). […] The drinking water was replaced twice a week. […] All animals were decapitated on day 30 after CSF sampling, and brain regions (prefrontal cortex, and hippocampus) were dissected rapidly on ice. Metabolomic analyses of rat CSF samples were performed as described herein.
(§3) Prefrontal cortex, and hippocampus were dissected rapidly on ice and stored in RNA later (Applied Biosystems) at 4° C. until used for RNA isolation, cDNA synthesis and polymerase chain reaction (PCR) amplification. The total RNA was extracted using the RNeasy Lipid Tissue Mini Kit (QIAGEN) following the instructions of manufacturer. RNA yield and integrity was assessed using Nanodrop (NanoDrop Technologies). Reverse transcription of total RNA was done using the […] VILO cDNA Synthesis Kit (Invitrogen). In the quantitative PCR, the cDNA was amplified using commercial TaqMan assays (Applied Biosystems) for rat Idh3A (Rn00586270_m1), Idh3B (Rn00504589_g1), Aco1 (Rn00569045_m1), Aco2 (Rn00577876_m1) and Gapdh (Rn01775763_g1) with an ABI 7500 Fast Real-Time PCR system (Applied Biosystems). (Table 17) Reactions were performed in triplicates. All reactions were normalized to Gapdh and presented as relative expression changes compared to control.

Idh3b = test: Quantitative PCR of Idh3b mRNA in rat prefrontal cortex and hippocampus after Li or VPA; type: in vivo; conditions: normalized to Gapdh; for Idh3b gene expression: relative to control, mean ± SD
Experimental: as §1, §2, §3

serum samples from rats = test: Metabolomics of serum samples from rats chronically treated with Li or VPA; type: in vivo, rat; conditions: chronic (4-weeks) treatment
Experimental: Data from human samples are presented as mean±standard deviation (SD). Statistical analysis was performed using SAS software version 9.3 (SAS Institute, Cary, N.C.). Analyses of metabolites between control and BD groups were performed using unpaired t-tests and Wilcoxon rank sum tests. A logistic regression model with a stepwise selection method was used for the multivariate analysis and multiple regression analysis (consistent with description in Allen et al., Technometrics. 1974; 16(1):125-127; and Miller et al., Chapman and Hall. 1974, which are incorporated in their entireties by reference herein). […] The Mann-Whitney U test (two-tailed) was used to evaluate changes in expression levels of the ACO and IDH genes between control and BD groups. Rat data are presented as mean±SD. To determine the effects of drug treatment, a one-way ANOVA, followed by the post hoc Dunnett's test was used. P values of less than 0.05 for two-tailed tests were considered statistically significant.
as §2
The serum concentrations of 116 major metabolites from several pathways were measured.

[1] = rat prefrontal cortex and hippocampus, chronic (4-weeks) treatment, vs control

Compound: O=C([O-])[O-].[Li+].[Li+] [Li, lithium carbonate]
- Aco1 gene expression (Aco1; rat hippocampus): 1.0171 ± 0.0497
- mRNA levels of Aco1 (Aco1; [1]): did not alter; also recorded: not altered
- Aco1 gene expression (Aco1; rat prefrontal cortex): 1.0091 ± 0.1737
- Idh3b gene expression (Idh3b; rat hippocampus): 1.3074 ± 0.2494
- mRNA levels of Idh3b (Idh3b; [1]): did not alter; also recorded: not altered
- Idh3b gene expression (Idh3b; rat prefrontal cortex): 1.3440 ± 0.4424
- 2,3-Diphosphoglyceric acid Mean (serum samples from rats; rat serum): 2.3
- 2-Hydroxyglutaric acid Mean (serum samples from rats; rat serum): 2.7
- 2-Oxoglutaric acid Mean (serum samples from rats; rat serum): 64
- 2-Oxoisovaleric acid Mean (serum samples from rats; rat serum): 12
- 2-Phosphoglyceric acid Mean (serum samples from rats; rat serum): 0.7
- 3-Phosphoglyceric acid Mean (serum samples from rats; rat serum): 5.5
- ADP-ribose Mean (serum samples from rats; rat serum): 0.2
- AMP Mean (serum samples from rats; rat serum): 0.5
- ATP Mean (serum samples from rats; rat serum): 4.3
- Ala Mean (serum samples from rats; rat serum): 671
- Arg Mean (serum samples from rats; rat serum): 206
- Argininosuccinic acid Mean (serum samples from rats; rat serum): 0.6
- Asn Mean (serum samples from rats; rat serum): 87
- Asp Mean (serum samples from rats; rat serum): 13
- Betaine Mean (serum samples from rats; rat serum): 259
- Carnitine Mean (serum samples from rats; rat serum): 65
- Carnosine Mean (serum samples from rats; rat serum): 0.2
- Choline Mean (serum samples from rats; rat serum): 15
- Citric acid Mean (serum samples from rats; rat serum): 212
- Citrulline Mean (serum samples from rats; rat serum): 103
- Creatine Mean (serum samples from rats; rat serum): 104
- Creatinine Mean (serum samples from rats; rat serum): 26
- Cystathionine Mean (serum samples from rats; rat serum): 1.2
- Fructose 1,6-diphosphate Mean (serum samples from rats; rat serum): 0.3
- Fructose 6-phosphate Mean (serum samples from rats; rat serum): 0.10
- Fumaric acid Mean (serum samples from rats; rat serum): 4.0
- GDP Mean (serum samples from rats; rat serum): 0.5
- GMP Mean (serum samples from rats; rat serum): 0.12
- GTP Mean (serum samples from rats; rat serum): 2.0
- Gln Mean (serum samples from rats; rat serum): 817
- Glu Mean (serum samples from rats; rat serum): 140
- Glucose 6-phosphate Mean (serum samples from rats; rat serum): 0.6
- Glutathione (GSSG) Mean (serum samples from rats; rat serum): 0.5
- Gly Mean (serum samples from rats; rat serum): 340
- Glycerol 3-phosphate Mean (serum samples from rats; rat serum): 3.1
- Glycolic acid Mean (serum samples from rats; rat serum): 9.4
- His Mean (serum samples from rats; rat serum): 89
- Hydroxyproline Mean (serum samples from rats; rat serum): 65
- IMP Mean (serum samples from rats; rat serum): 0.14
- Ile Mean (serum samples from rats; rat serum): 119
- Isocitric acid Mean (serum samples from rats; rat serum): 9.5
- Lactic acid Mean (serum samples from rats; rat serum): 2,764
- Leu Mean (serum samples from rats; rat serum): 199
- Lys Mean (serum samples from rats; rat serum): 468
- Malic acid Mean (serum samples from rats; rat serum): 23
- Met Mean (serum samples from rats; rat serum): 59
- Mevalonic acid Mean (serum samples from rats; rat serum): 0.05
- N,N-Dimethylglycine Mean (serum samples from rats; rat serum): 18
- N-Carbamoylaspartic acid Mean (serum samples from rats; rat serum): 0.02
- NAD^+ Mean (serum samples from rats; rat serum): 1.1
- Ornithine Mean (serum samples from rats; rat serum): 75
- Phe Mean (serum samples from rats; rat serum): 67
- Phosphocreatine Mean (serum samples from rats; rat serum): 0.7
- Pro Mean (serum samples from rats; rat serum): 272
- Putrescine Mean (serum samples from rats; rat serum): 0.4
- Pyruvic acid Mean (serum samples from rats; rat serum): 126
- Ribose 1-phosphate Mean (serum samples from rats; rat serum): 0.3
- Ribose 5-phosphate Mean (serum samples from rats; rat serum): 0.04
- Ribulose 5-phosphate Mean (serum samples from rats; rat serum): 0.2
- Sarcosine Mean (serum samples from rats; rat serum): 7.2
- Ser Mean (serum samples from rats; rat serum): 319
- Succinic acid Mean (serum samples from rats; rat serum): 17
- Thr Mean (serum samples from rats; rat serum): 298
- Trp Mean (serum samples from rats; rat serum): 148
- Tyr Mean (serum samples from rats; rat serum): 95
- UDP-glucose Mean (serum samples from rats; rat serum): 0.6
- Urea Mean (serum samples from rats; rat serum): 6,360
- Uric acid Mean (serum samples from rats; rat serum): 23
- Val Mean (serum samples from rats; rat serum): 283
- cAMP Mean (serum samples from rats; rat serum): 0.04
- cGMP Mean (serum samples from rats; rat serum): 0.02
- cis-Aconitic acid Mean (serum samples from rats; rat serum): 4.3
- β-Ala Mean (serum samples from rats; rat serum): 2.0
- serum levels of 2-oxoglutaric acid (serum samples from rats; rats, vs control): significantly increased
- serum levels of N-acetylglutamic acid (serum samples from rats; rats, vs control): not altered
- serum levels of arginine (serum samples from rats; rats, vs control): not altered
- serum levels of pyruvic acid (serum samples from rats; rats, vs control): not altered
- serum levels of serine (serum samples from rats; rats, vs control): not altered
- serum levels of β-alanine (serum samples from rats; rats, vs control): not altered
